According to US20210267203A1, “PESTICIDALLY ACTIVE AZOLE-AMIDE COMPOUNDS” (SYNGENTA PARTICIPATIONS AG, priority 2018, published 2021):

Tests used:
Assay type in all cases: in vivo
[1] = test system: Myzus persicae (Green Peach Aphid); experiment: Example B13: activity against Myzus persicae (green peach aphid), 96-well sucrose solution; settings: 120 h, application rate 50 ppm, 5 days after infestation
Procedure, shortened: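 Compounds, from 10,000 ppm DMSO stocks, mixed into sucrose solution in wells under stretched Parafilm, with aphids placed on the membrane in an inverted feeding setup. Mortality scored 5 days after infestation.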

[2] = test system: Plutella xylostella (Diamond Back Moth); experiment: Example B5: Plutella xylostella (diamond back moth), artificial diet, 24-well, eggs; settings: 192 h, application rate 200 ppm, 8 days after infestation, read-out: effect in at least one of the two categories (mortality or growth inhibition)
Procedure, shortened: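 Artificial diet in 24-well plates treated with aqueous dilutions of 10,000 ppm DMSO stocks, dried, then infested with Plutella eggs. Mortality and growth inhibition scored against untreated samples 8 days after infestation; activity rated at 200 ppm application rate.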

[3] = test system: Tetranychus urticae (Two-Spotted Spider Mite); experiment: Example B11: Tetranychus urticae (two-spotted spider mite), feeding/contact activity; settings: 192 h, application rate 200 ppm, mixed population (mobile stages), 8 days after infestation
Protocol: Example B11: Tetranychus urticae (Two-Spotted Spider Mite):Feeding/Contact Activity
Bean leaf discs on agar in 24-well microtiter plates were sprayed with aqueous test solutions prepared from 10,000 ppm DMSO stock solutions. After drying the leaf discs were infested with a mite population of mixed ages. The samples were assessed for mortality on mixed population (mobile stages) 8 days after infestation.

[4] = test system: Euschistus heros (Neotropical Brown Stink Bug); experiment: Example B2: Euschistus heros (neotropical brown stink bug), soybean leaves sprayed, N2 nymphs; settings: 120 h, application rate 200 ppm, 5 days after infestation, read-out: effect in at least one of the two categories (mortality or growth inhibition)
Procedure, shortened: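 Soybean leaves on agar sprayed with aqueous test solutions made from 10,000 ppm DMSO stocks, dried, then infested with N2 nymphs. Mortality and growth inhibition scored versus untreated samples 5 days after infestation; activity threshold at 200 ppm.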

[5] = test system: Plutella xylostella (Diamondback Moth); experiment: Example B14: activity against Plutella xylostella (diamondback moth), 96-well artificial diet; settings: 216 h, application rate 500 ppm, 9 days after infestation
Procedure, shortened: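 Diet in 96-well plates was treated with aqueous dilutions of 10,000 ppm DMSO stocks, dried, and infested with 30 eggs per well via a netted lid; hatching L1 larvae fed on the diet. Mortality scored 9 days after infestation.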

[6] = test system: Diabrotica Balteata (Corn Root Worm); experiment: Example B1: Diabrotica balteata (corn root worm), maize sprouts sprayed, L2 larvae; settings: 96 h, application rate 200 ppm, 4 days after infestation, read-out: effect in at least one of the two categories (mortality or growth inhibition)
Procedure, shortened: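 Maize sprouts on agar sprayed with aqueous dilutions of 10,000 ppm DMSO stocks, dried, then infested with 6–10 L2 larvae per well. Mortality and growth inhibition scored against untreated samples 4 days after infestation; rates of 200 ppm.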

[7] = test system: Chilo suppressalis (Striped Rice Stemborer); experiment: Example B4: Chilo suppressalis (striped rice stemborer), artificial diet, L2 larvae; settings: 144 h, application rate 200 ppm, 6 days after infestation
Procedure, shortened: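 L2 larvae (6-8 per well) placed on artificial diet treated with aqueous test solutions prepared from 10,000 ppm DMSO stocks, after drying. Mortality, anti-feeding and growth inhibition scored against untreated samples 6 days after infestation; control means at least one category exceeds untreated.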

[8] = test system: Spodoptera littoralis (Egyptian Cotton Leaf Worm); experiment: Example B9: Spodoptera littoralis (Egyptian cotton leaf worm), cotton leaf discs sprayed, L1 larvae; settings: foliar, 72 h, application rate 200 ppm, 3 days after infestation
Procedure, shortened: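 Leaf discs on agar sprayed with aqueous dilutions from 10,000 ppm DMSO stock, dried, then infested with five L1 larvae. Mortality, anti-feeding and growth inhibition scored against untreated samples 3 days after infestation; control counted when any category exceeds untreated.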

[9] = test system: Myzus persicae (Green Peach Aphid); experiment: Example B8: Myzus persicae (green peach aphid), intrinsic activity; settings: 120 h, test rate 12 ppm, sucrose solution, 24-well, 5 days after infestation
Procedure, shortened: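 Compounds diluted from 10,000 ppm DMSO stock were mixed with sucrose solution under stretched Parafilm in a sachet feeding setup, with aphid-infested pea seedlings placed on the membrane. Mortality was scored 5 days after infestation.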

[10] = test system: Frankliniella occidentalis (Western Flower Thrips); experiment: Example B3: Frankliniella occidentalis (western flower thrips), feeding/contact activity; settings: 168 h, application rate 200 ppm, mixed ages, 7 days after infestation
Protocol: Example B3: Frankliniella occidentalis (Western Flower Thrips):Feeding/Contact Activity
(§1) Sunflower leaf discs were placed on agar in 24-well microtiter plates and sprayed with aqueous test solutions prepared from 10,000 DMSO stock solutions. After drying the leaf discs were infested with a Frankliniella population of mixed ages. The samples were assessed for mortality 7 days after infestation.

[11] = test system: Myzus persicae (Green Peach Aphid); experiment: Example B6: Myzus persicae (green peach aphid), feeding/contact activity; settings: 144 h, application rate 200 ppm, 6 days after infestation
Protocol: Example B6: Myzus persicae (Green Peach Aphid):Feeding/Contact Activity
Sunflower leaf discs were placed onto agar in a 24-well microtiter plate and sprayed with aqueous test solutions prepared from 10,000 ppm DMSO stock solutions. After drying, the leaf discs were infested with an aphid population of mixed ages. The samples were assessed for mortality 6 days after infestation.

[12] = test system: Myzus persicae (Green Peach Aphid); experiment: Example B7: Myzus persicae (green peach aphid), systemic activity; settings: 144 h, test rate 24 ppm, pea seedling roots in test solution, 6 days
Protocol: Example B7: Myzus persicae (Green Peach Aphid), Systemic Activity
Roots of pea seedlings infested with an aphid population of mixed ages were placed directly into aqueous test solutions prepared from 10,000 DMSO stock solutions. The samples were assessed for mortality 6 days after placing seedlings into test solutions.

[13] = test system: Thrips tabaci (Onion Thrips); experiment: Example B12: Thrips tabaci (onion thrips), feeding/contact activity; settings: 144 h, application rate 200 ppm, mixed ages, 6 days after infestation
Protocol: Example B12: Thrips tabaci (Onion Thrips) Feeding/Contact Activity
as §1, with “10,000 ppm” for “10,000”, “thrips” for “Frankliniella”, “6” for “7”

[14] = test system: Spodoptera littoralis (Egyptian Cotton Leaf Worm); experiment: Example B10: Spodoptera littoralis (Egyptian cotton leaf worm), uptake by lettuce roots from agar, eggs; settings: 144 h, test rate 12.5 ppm, lettuce root uptake, 6 days after infestation, read-out: effect in at least one of the three categories (mortality, anti-feeding, or growth inhibition)
Procedure, shortened: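 Compound mixed into agar from a 10,000 ppm DMSO stock; lettuce grown on it for 7 days for root uptake. Cut leaves infested with Spodoptera eggs; mortality, anti-feedant effect and growth inhibition scored against untreated samples 6 days after infestation.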

CC(c1ncnn1-c1ncccn1)N(CC1CC1)C(=O)c1cc(C(C)(C)C#N)cc(Cl)n1 (centres unmarked) [P27, 6-chloro-4-(1-cyano-1-methyl-ethyl)-N-(cyclopropylmethyl)-N-[1-(2-pyrimidin-2-yl-1,2,4-triazol-3-yl)ethyl]pyridine-2-carboxamide]
≥ 80%: mortality at 50 ppm [1] | percent effect (mortality or growth inhibition) at 200 ppm [2] | mortality at 200 ppm [3] | percent effect (mortality or growth inhibition) at 200 ppm [4] | mortality at 500 ppm [5]

CC(NC(=O)c1cc(C(F)(F)F)cc(C(C)(C)C#N)c1)c1ncnn1-c1ncc(Br)cn1 (centres unmarked) [P79, N-[1-[2-(5-bromopyrimidin-2-yl)-1,2,4-triazol-3-yl]ethyl]-3-(1-cyano-1-methyl-ethyl)-5-(trifluoromethyl)benzamide]
≥ 80%: percent effect (mortality or growth inhibition) at 200 ppm [6] | percent control (mortality, anti-feedant effect or growth inhibition) at 200 ppm [7] | percent effect (mortality or growth inhibition) at 200 ppm [2] | mortality at 200 ppm [3] | percent effect (mortality or growth inhibition) at 200 ppm [4] | percent control (mortality, anti-feedant effect or growth inhibition) at 200 ppm [8]

CC(NC(=O)c1cc(C(F)(F)F)cc(S(C)(=O)=O)c1)c1ncnn1-c1ncccn1 (centres unmarked) [P64, 3-methylsulfonyl-N-[1-(2-pyrimidin-2-yl-1,2,4-triazol-3-yl)ethyl]-5-(trifluoromethyl)benzamide]
≥ 80%: percent effect (mortality or growth inhibition) at 200 ppm [6] | percent control (mortality, anti-feedant effect or growth inhibition) at 200 ppm [7] | mortality at 50 ppm [1] | mortality at 12 ppm [9] | percent effect (mortality or growth inhibition) at 200 ppm [2] | percent effect (mortality or growth inhibition) at 200 ppm [4] | mortality at 200 ppm [10] | mortality at 200 ppm [11] | percent control (mortality, anti-feedant effect or growth inhibition) at 200 ppm [8] | mortality at 24 ppm [12]

Cc1nc(C(C)NC(=O)c2cc(C(F)(F)F)cc(C3(C#N)CC3)c2)n(-c2ncccn2)n1 (centres unmarked) [P83, 3-(1-cyanocyclopropyl)-N-[1-(5-methyl-2-pyrimidin-2-yl-1,2,4-triazol-3-yl)ethyl]-5-(trifluoromethyl)benzamide]
≥ 80%: percent effect (mortality or growth inhibition) at 200 ppm [6] | percent control (mortality, anti-feedant effect or growth inhibition) at 200 ppm [7] | mortality at 50 ppm [1] | mortality at 12 ppm [9] | percent effect (mortality or growth inhibition) at 200 ppm [2] | mortality at 200 ppm [3] | percent effect (mortality or growth inhibition) at 200 ppm [4] | mortality at 200 ppm [10] | mortality at 200 ppm [11] | percent control (mortality, anti-feedant effect or growth inhibition) at 200 ppm [8] | mortality at 24 ppm [12]

CC(c1ncnn1-c1ncccn1)N(CC1CC1)C(=O)c1cc(C(F)(F)F)cc(S(C)(=O)=O)c1 (centres unmarked) [P34, N-(cyclopropylmethyl)-3-methylsulfonyl-N-[1-(2-pyrimidin-2-yl-1,2,4-triazol-3-yl)ethyl]-5-(trifluoromethyl)benzamide]
≥ 80%: mortality at 200 ppm [13] | percent effect (mortality or growth inhibition) at 200 ppm [6] | mortality at 50 ppm [1] | mortality at 12 ppm [9] | percent effect (mortality or growth inhibition) at 200 ppm [2] | mortality at 200 ppm [3] | percent effect (mortality or growth inhibition) at 200 ppm [4] | mortality at 200 ppm [11] | mortality at 24 ppm [12] | mortality at 500 ppm [5]

CC(NC(=O)c1cc(-c2cccnc2Cl)cc(C(F)(F)F)c1)c1ncnn1-c1ncccn1 (centres unmarked) [P62, 3-(2-chloro-3-pyridyl)-N-[1-(2-pyrimidin-2-yl-1,2,4-triazol-3-yl)ethyl]-5-(trifluoromethyl)benzamide]
≥ 80%: mortality at 200 ppm [3]

CC(c1ncnn1-c1ncccn1)N(CC1CC1)C(=O)c1cc(C(F)(F)F)cc(C2(C(F)(F)F)CC2)c1 (centres unmarked) [P45, N-(cyclopropylmethyl)-N-[1-(2-pyrimidin-2-yl-1,2,4-triazol-3-yl)ethyl]-3-(trifluoromethyl)-5-[1-(trifluoromethyl)cyclopropyl]benzamide]
≥ 80%: percent effect (mortality or growth inhibition) at 200 ppm [6] | percent effect (mortality, anti-feeding or growth inhibition) at 12.5 ppm [14] | mortality at 50 ppm [1] | mortality at 12 ppm [9] | percent effect (mortality or growth inhibition) at 200 ppm [2] | percent effect (mortality or growth inhibition) at 200 ppm [4] | mortality at 200 ppm [10] | percent control (mortality, anti-feedant effect or growth inhibition) at 200 ppm [8] | mortality at 24 ppm [12] | mortality at 500 ppm [5]

C[C@H](NC(=O)c1cc(C2CC2)cc(C(F)(F)F)c1)c1ncnn1-c1ncccn1 [P72, 3-cyclopropyl-N-[(1S)-1-(2-pyrimidin-2-yl-1,2,4-triazol-3-yl)ethyl]-5-(trifluoromethyl)benzamide]
≥ 80%: percent effect (mortality or growth inhibition) at 200 ppm [6] | percent control (mortality, anti-feedant effect or growth inhibition) at 200 ppm [7] | mortality at 12 ppm [9] | percent effect (mortality or growth inhibition) at 200 ppm [2] | percent effect (mortality or growth inhibition) at 200 ppm [4] | mortality at 200 ppm [10] | mortality at 200 ppm [11] | percent control (mortality, anti-feedant effect or growth inhibition) at 200 ppm [8]

CC(NC(=O)c1cc(C(F)(F)F)cc(C2(C#N)CC2)c1)c1ncnn1-c1ncccn1 (centres unmarked) [P85, 3-(1-cyanocyclopropyl)-N-[1-(2-pyrimidin-2-yl-1,2,4-triazol-3-yl)ethyl]-5-(trifluoromethyl)benzamide]
≥ 80%: percent effect (mortality or growth inhibition) at 200 ppm [6] | percent effect (mortality, anti-feeding or growth inhibition) at 12.5 ppm [14] | percent control (mortality, anti-feedant effect or growth inhibition) at 200 ppm [7] | mortality at 50 ppm [1] | mortality at 12 ppm [9] | percent effect (mortality or growth inhibition) at 200 ppm [2] | percent effect (mortality or growth inhibition) at 200 ppm [4] | mortality at 200 ppm [10] | mortality at 200 ppm [11] | percent control (mortality, anti-feedant effect or growth inhibition) at 200 ppm [8]
